The text below walks through data of US3988453A, “Novel phenothiazines as neuroleptics” (Roussel-UCLAF, priority 1974, dated 1976).

The ED50 is the dose that gives a 50% effect, or the effect in half of the subjects.

Structures can show the parent of a compound that is named as a salt. Where two headings read alike, the source gives them in different places.

For assay [1], the system named is stereotypes provoked by apomorphine. The assay is described as follows: antagonism to stereotypes provoked by apomorphine. Type of assay: in vivo, male rats. The settings on record: rat, oral, read-out: ED50 (DE50), apomorphine sterotypes. How it is done: A. antagonism to stereotypes provoked by apomorphine
This test was conducted on groups of 5 male rats in individual cages with the procedure of Janssen et al [Arzn. Forsch., Vol. 15 (1965), p. 104-117 and Vol. 17 (1967), p. 841-854]. Each rat orally received the test compound and then, at variable times, an intraveinous injection of 1.5 mg of apomorphine hydrochloride in the veins of the penis. The times of injection were 1 hour, 24 hours, 2 days, 3 days or 4 days after the test product administration and the rats were studied during 1 minute after 5,10 and 15 minutes after the injection and the stereotype movements of the jaws spheres were evaluated for their degree of intensity on a scale for 0 to 3 /Boissier et al, Therapie, Vol. 25 (1970), p. 939-949/. The ED50 was determined at the maximum of the effect for the time considered that is to say the dose reducing the symptoms by 50% in the treated animals as compared to control animals and the results are reported in Table I.

Assay [2] concerns toxicity provoked by amphetamine. The assay is described as follows: antagonism to toxicity provoked by amphetamine. Type of assay: in vivo, male mice. The settings on record: mouse, oral, read-out: ED50 (DE50), amphetaminic toxicity. How it is done: B. antagonism to toxicity provoked by amphetamine
This test was effect on groups of 10 male mice grouped in crystallizers with a 20 cm diameter and a 9 cm height closed with a grilled lid. Each mouse orally received a determined dose of the test product and at different times a single intraperitoneal dose of dexamphetamine sulfate. The injection was effected 1 hour, 24 hours or 2,3,4 or 7 days after the administration of the test compound and the mortality for each group was determined 24 hours after the injection. The ED50, the dose at which the toxicity of dexamphetamine sulphate was reduced by 50%, was determined and the results are reported in Table I.

The test system of assay [3] is histamine hydrochloride lethality. The assay is described as follows: antihistaminic activity (protection against lethal histamine dose). Type of assay: in vivo, guinea pigs. To be noted: guinea pig, oral 10 mg/kg. On the procedure:
E. antihistaminic Activity
This test was effected on guinea pigs which received orally a single dose of 10 mg/kg of the test product and then a intraveinous injection of 0.8 mg/kg of histamine hydrochloride 1 hour or 24 hours thereafter. This histamine dose is the minimum lethal dose for 100% of the animals within about 3 minutes and after 10 minutes, any surviving animals were considered to be protected. Each product was rated to see if 50% of the animals were alive at this dose and the values of Table IV show at least 50% protected by + and less than 50% protected by 0.

The mark [4] stands for this setting: apomorphine 1 h after test product.
Setting [5] is: apomorphine 24 h after test product.
Where [6] appears, read: dexamphetamine 1 h after test product.
Where [7] appears, read: dexamphetamine 24 h after test product.
Setting [8] is: 48 h, apomorphine 2 d after test product.
Setting [9] is: 48 h, dexamphetamine 2 d after test product.
Setting [10] is: 72 h, apomorphine 3 d after test product.
[11] abbreviates: 96 h, apomorphine 4 d after test product.
[12] abbreviates: 72 h, dexamphetamine 3 d after test product.
[13] abbreviates: 96 h, dexamphetamine 4 d after test product.
Where [14] appears, read: 168 h, dexamphetamine 7 d after test product.

Regarding `c1ccc2c(c1)Sc1ccccc1N2CCCN1CCC(c2c[nH]c3ccccc23)CC1` [Example 1, 4-(3'-indolyl)-1-[γ-(10"-phenothiazinyl)-propyl]-piperidine.HCl], the ED50 in assay [1] (setting [4]) was over 50 mg/kg; in assay [1] (setting [5]), 35 mg/kg; in assay [2] (setting [6]), under 10 mg/kg; in assay [2] (setting [7]), under 10 mg/kg. Also, the Protection against histamine in assay [3] (after 1 hour) was 0 (less than 50% protected); in assay [3] (after 24 hours) it was “+ (at least 50% protected)”.
On to `COc1ccc2c(c1)N(CCCN1CCC(c3c[nH]c4ccccc34)CC1)c1ccccc1S2` [Example 6, 4-(3'-indolyl)-1-[γ-(2"-methoxy-10"-phenothiazinyl)-propyl]-piperidine hydrochloride], for which the ED50 in assay [1] (setting [8]) was 45 mg/kg; in assay [1] (setting [4]), over 50 mg/kg; in assay [1] (setting [5]), under 10 mg/kg; in assay [2] (setting [9]), 10 mg/kg; in assay [2] (setting [6]) it was under 10 mg/kg; in assay [2] (setting [7]), under 10 mg/kg. Moreover, the figures for the Protection against histamine in assay [3] (after 1 hour) and in assay [3] (after 24 hours) were 0 (less than 50% protected) and “+ (at least 50% protected)”, respectively.
On to `COc1ccc2[nH]cc(C3CCN(CCCN4c5ccccc5Sc5ccc(C(F)(F)F)cc54)CC3)c2c1` [Example 3, 4-(5'-methoxy-3'-indolyl)-1-[γ-(2"-trifluoromethyl-10"-phenothiazinyl)-propyl]-piperidine hydrochloride], for which the ED50 in assay [1] (setting [8]) was under 10 mg/kg; in assay [1] (setting [10]) it was 12 mg/kg; in assay [1] (setting [11]), 20 mg/kg; in assay [1] (setting [4]), over 50 mg/kg; in assay [1] (setting [5]) it was under 10 mg/kg; in assay [2] (setting [9]) it was under 10 mg/kg. Moreover, the ED50 in assay [2] (setting [12]), in assay [2] (setting [13]), in assay [2] (setting [6]) and in assay [2] (setting [7]) was under 10 mg/kg each time.
Regarding `COc1ccc2c(C3CCN(CCCN4c5ccccc5Sc5ccc(C(F)(F)F)cc54)CC3)c(C)[nH]c2c1` [Example 4, 4-(2'-methyl-6'-methoxy-3'-indolyl)-1-[γ-(2"-trifluoromethyl-10"-phenothiazinyl)-propyl]-piperidine hydrochloride], the ED50 in assay [1] (setting [8]) is 9 mg/kg; in assay [1] (setting [10]), 16 mg/kg; in assay [1] (setting [11]) it was 25 mg/kg; in assay [1] (setting [4]), over 50 mg/kg; in assay [1] (setting [5]) it was 9 mg/kg; in assay [2] (setting [9]), under 10 mg/kg. In addition, the ED50 is 9 mg/kg in assay [2] (setting [12]); 9 mg/kg in assay [2] (setting [13]); 50 mg/kg in assay [2] (setting [14]); 10 mg/kg in assay [2] (setting [6]); under 10 mg/kg in assay [2] (setting [7]).
For `COc1ccc2c(c1)N(CC(C)CN1CCC(c3c[nH]c4ccccc34)CC1)c1ccccc1S2` (stereo not drawn) [Example 8, 4-(3'-indolyl)-1-[γ-(2"-methoxy-10"-phenothiazinyl)-β-methylpropyl]-piperidine hydrochloride], the ED50 in assay [1] (setting [8]) is 12 mg/kg; in assay [1] (setting [10]) it was 30 mg/kg; in assay [1] (setting [4]), over 50 mg/kg; in assay [1] (setting [5]), under 10 mg/kg; in assay [2] (setting [9]), under 10 mg/kg; in assay [2] (setting [12]) it was 18 mg/kg. Also, the ED50 in assay [2] (setting [6]) and in assay [2] (setting [7]) was under 10 mg/kg throughout. Besides, the Protection against histamine is given as 0 (less than 50% protected) in assay [3] (after 1 hour) and “+ (at least 50% protected)” in assay [3] (after 24 hours).
As for `Clc1ccc2c(c1)N(CCCN1CCC(c3c[nH]c4ccccc34)CC1)c1ccccc1S2` [Example 5, 4-(3'-indolyl)-1'-[γ-(2"-chloro-10"-phenothiazinyl)-propyl]-piperidine hydrochloride], the ED50 is 12 mg/kg in assay [1] (setting [8]); 27 mg/kg in assay [1] (setting [10]); over 50 mg/kg in assay [1] (setting [4]); under 10 mg/kg in assay [1] (setting [5]); under 10 mg/kg in assay [2] (setting [9]); 10 mg/kg in assay [2] (setting [12]). The ED50 in assay [2] (setting [13]) was 17 mg/kg; in assay [2] (setting [6]), 16 mg/kg; in assay [2] (setting [7]) it was under 10 mg/kg. Moreover, the Protection against histamine result in assay [3] (after 1 hour) and in assay [3] (after 24 hours) was “+ (at least 50% protected)” throughout.
`CC(CN1CCC(c2c[nH]c3ccccc23)CC1)CN1c2ccccc2Sc2ccc(C(F)(F)F)cc21` (stereo not drawn) [Example 7, 4-(3'-indolyl)-1-[β-methyl-γ-(2"-trifluoromethyl-10"-phenothiazinyl)-propyl]-piperidine hydrochloride]: the ED50 in assay [1] (setting [8]) is 10 mg/kg; in assay [1] (setting [10]), under 10 mg/kg; in assay [1] (setting [11]), 12 mg/kg; in assay [1] (setting [4]), over 20 mg/kg; in assay [1] (setting [5]), 10 mg/kg; in assay [2] (setting [9]), under 10 mg/kg. For the same compound, the ED50 in assay [2] (setting [12]) is 13 mg/kg; in assay [2] (setting [13]), under 10 mg/kg; in assay [2] (setting [14]), 19 mg/kg; in assay [2] (setting [6]), over 20 mg/kg; in assay [2] (setting [7]), under 10 mg/kg. The values for the Protection against histamine in assay [3] (after 1 hour) and in assay [3] (after 24 hours) were 0 (less than 50% protected) and “+ (at least 50% protected)”, respectively.
